From PubChem BioAssay AID296 (DTP/NCI, 2004) come the findings set out here.

Where “and” joins values, the source holds several entries; their conditions need not be identical. Identical values can stand only once. Inconclusive results are not listed.

The subject of the test is MX-1 breast xenograft, nude mice, tumor weight T/C. In words: NCI In Vivo Anticancer Drug Screen. Data for tumor model Human Mammary Carcinoma MX-1 Xenograft (intrarenal inoculation) in NU/NU Swiss (nude) mice. Conditions: endpoint: mean tumor weight change, higher = larger tumour. Summed up: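 Read-out: treated (T) over vehicle control (C) ratio of survival or tumor size. Dosing in animals carrying the transplanted tumor.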
(Xenograft models place foreign cells or tissue in a host animal.)

Setting [1] is: dose: 400.0 mg/kg/injection, schedule: Q04DX003 (sc), vehicle: saline with Tween-80.
[2] abbreviates: dose: 800.0 mg/kg/injection, schedule: Q04DX003 (sc), vehicle: saline.
Where [3] appears, read: dose: 25.0 mg/kg/injection, schedule: Q01DX010 (sc), vehicle: Klucel (hydroxypropylcellulose) (HPC).
[4] abbreviates: dose: 300.0 mg/kg/injection, schedule: Q04DX003 (sc), vehicle: saline with Tween-80.
The mark [5] stands for this setting: dose: 600.0 mg/kg/injection, schedule: Q04DX003 (sc), vehicle: saline with Tween-80.
Where [6] appears, read: dose: 1200.0 mg/kg/injection, schedule: Q04DX003 (sc), vehicle: saline with Tween-80.
The mark [7] stands for this setting: dose: 2400.0 mg/kg/injection, schedule: Q04DX003 (sc), vehicle: saline with Tween-80.

For the molecule `CCC/C=C/C=C/C(=O)OC1/C(=C/C(=O)OC)CC2CC(C(C)O)OC(=O)CC(O)CC3CC(OC(C)=O)C(C)(C)C(O)(CC4C/C(=C/C(=O)OC)CC(/C=C/C(C)(C)C1(O)O2)O4)O3` (configuration not stated), the T/C by setting is: (dose: 0.25 mg/kg/injection, schedule: Q04DX003 (sc), vehicle: saline + alcohol) 103 % of control; (dose: 0.5 mg/kg/injection, schedule: Q04DX003 (sc), vehicle: saline + alcohol) 111 % of control; (dose: 1.0 mg/kg/injection, schedule: Q04DX003 (sc), vehicle: saline + alcohol) 70 % of control; (dose: 2.0 mg/kg/injection, schedule: Q04DX003 (sc), vehicle: saline + alcohol) 60 % of control.

As for `CC12CCC3C(CCC4CC(OC(=O)Cc5ccc(N(CCCl)CCCl)cc5)CCC43C)C1CCC(=O)N2` (configuration not stated), the T/C (dose: 25.0 mg/kg/injection, schedule: Q04DX003 (sc), vehicle: saline with Tween-80) is 3 % of control and the T/C under setting [1] is -82 % of control.

Consider `NC(=O)SCC(N)C(=O)O` (configuration not stated), for which the T/C is 73 % of control (dose: 225.0 mg/kg/injection, schedule: Q04DX003 (sc), vehicle: suspension in saline); 62 % of control (dose: 400.0 mg/kg/injection, schedule: Q04DX003 (sc), vehicle: suspension in saline); 49 % of control (dose: 450.0 mg/kg/injection, schedule: Q04DX003 (sc), vehicle: suspension in saline); 57 % of control (dose: 600.0 mg/kg/injection, schedule: Q04DX003 (sc), vehicle: suspension in saline).

In the case of `O=[n+]1c2ccccc2n([O-])c2ccccc21.[Cl][Ni][Cl]`, the T/C was 90 % of control (dose: 75.0 mg/kg/injection, schedule: Q04DX003 (sc), vehicle: saline with Tween-80) and 53 % of control (dose: 150.0 mg/kg/injection, schedule: Q04DX003 (sc), vehicle: saline with Tween-80).

As for `CO[C@@]12[C@H](COC(N)=O)C3=C(C(=O)C(C)=C(N)C3=O)N1C[C@@H]1N[C@@H]12`, the T/C (dose: 3.0 mg/kg/injection, schedule: Q04DX003 (sc), vehicle: saline) was -100 % of control; the T/C (dose: 6.0 mg/kg/injection, schedule: Q04DX003 (sc), vehicle: saline) was -88 % of control and -100 % of control (2×).

Take `C/C=C/C=C/c1cc2cc3c(c(O)c2c(=O)[nH]1)C1(CC3)C(O)=c2c(=O)c3c(=O)cc(OC)c(=O)c=3c(=O)c2=C1O` (configuration not stated): the T/C is 122 % of control (dose: 8.0 mg/kg/injection, schedule: Q01DX010 (sc), vehicle: DMSO) and 91 % of control (dose: 16.0 mg/kg/injection, schedule: Q01DX010 (sc), vehicle: DMSO).

Turning to `CN1N=C(N)c2cn(C3OC(COP(=O)(O)O)C(O)C3O)c3ncnc1c23` (configuration not stated), the T/C was -92 % of control and -76 % of control (dose: 25.0 mg/kg/injection, schedule: Q01DX010 (sc), vehicle: water); -91 % of control and -75 % of control (dose: 50.0 mg/kg/injection, schedule: Q01DX010 (sc), vehicle: water).

`CONc1ccn(C2OC(CO)C(O)C2O)c(=O)n1` (configuration not stated): the T/C is, setting by setting: (dose: 300.0 mg/kg/injection, schedule: Q04DX003 (sc), vehicle: saline) 86 % of control; (dose: 600.0 mg/kg/injection, schedule: Q04DX003 (sc), vehicle: saline) 74 % of control; (dose: 1200.0 mg/kg/injection, schedule: Q04DX003 (sc), vehicle: saline) 107 % of control; (dose: 2400.0 mg/kg/injection, schedule: Q04DX003 (sc), vehicle: saline) 77 % of control.

Regarding `NCCc1cc(O)c(O)c(O)c1`, the T/C runs as follows: (dose: 100.0 mg/kg/injection, schedule: Q04DX003 (sc), vehicle: saline) 59 % of control; (dose: 200.0 mg/kg/injection, schedule: Q04DX003 (sc), vehicle: saline) 150 % of control; (dose: 400.0 mg/kg/injection, schedule: Q04DX003 (sc), vehicle: saline) 154 % of control; under setting [2], 72 % of control.

Regarding `CCOC(=O)Nc1cc2c(c(N)n1)N=C(CN(C)c1ccccc1)CN2`, the T/C is, setting by setting: under setting [3], 82 % of control; (dose: 50.0 mg/kg/injection, schedule: Q01DX010 (sc), vehicle: Klucel (hydroxypropylcellulose) (HPC)) 70 % of control.

With `CC(C)NC(=O)OCc1c(COC(=O)NC(C)C)c(-c2ccc(Cl)c(Cl)c2)n2c1CCC2`, the T/C is, setting by setting: (dose: 25.0 mg/kg/injection, schedule: Q01DX010 (sc), vehicle: distilled water + Tween-80) -21 % of control; (dose: 50.0 mg/kg/injection, schedule: Q01DX010 (sc), vehicle: distilled water + Tween-80) 16 % of control; (dose: 150.0 mg/kg/injection, schedule: Q04DX003 (ip), vehicle: saline) 21 % of control; (dose: 300.0 mg/kg/injection, schedule: Q04DX003 (ip), vehicle: saline) 28 % of control.

For `CC[n+]1c(-c2ccccc2)c2cc(N)ccc2c2ccc(N)cc21`, the T/C runs as follows: (dose: 15.0 mg/kg/injection, schedule: Q04DX003 (sc), vehicle: saline) 119 % of control; (dose: 30.0 mg/kg/injection, schedule: Q04DX003 (sc), vehicle: saline) 110 % of control; (dose: 60.0 mg/kg/injection, schedule: Q04DX003 (sc), vehicle: saline) 83 % of control.

Consider `Cc1c2ccc3ccccc3c2c[n+]2ccccc12`, for which the T/C runs as follows: (dose: 9.38 mg/kg/injection, schedule: Q04DX003 (sc), vehicle: Klucel (hydroxypropylcellulose) (HPC)) 75 % of control; (dose: 18.75 mg/kg/injection, schedule: Q04DX003 (sc), vehicle: Klucel (hydroxypropylcellulose) (HPC)) 77 % of control.

Turning to `c1cc(OCC2CO2)ccc1OCC1CO1` (configuration not stated), the T/C under setting [4] is 110 % of control, the T/C under setting [5] was 103 % of control, the T/C under setting [6] was 92 % of control and the T/C under setting [7] was 106 % of control.

As to `Cc1c2c(ccc3ccccc32)c[n+]2ccccc12`, the T/C is 101 % of control (dose: 3.13 mg/kg/injection, schedule: Q01DX010 (sc), vehicle: saline); 82 % of control (dose: 6.25 mg/kg/injection, schedule: Q01DX010 (sc), vehicle: saline); 25 % of control (dose: 12.5 mg/kg/injection, schedule: Q01DX010 (sc), vehicle: saline).

For the molecule `CNC(=O)SCC(N)C(=O)O` (configuration not stated), the T/C is, setting by setting: (dose: 112.5 mg/kg/injection, schedule: Q04DX003 (ip), vehicle: saline) 86 % of control; (dose: 225.0 mg/kg/injection, schedule: Q04DX003 (ip), vehicle: saline) 67 % of control; (dose: 450.0 mg/kg/injection, schedule: Q04DX003 (ip), vehicle: saline) 27 % of control; (dose: 900.0 mg/kg/injection, schedule: Q04DX003 (ip), vehicle: saline) 17 % of control.

In the case of `CCOC(=O)c1[nH]c2cccc3c2c1CC(Br)C3=O` (configuration not stated), the T/C by setting is: under setting [4], 86 % of control; under setting [5], 100 % of control; under setting [6], 73 % of control; under setting [7], 94 % of control.

Consider `CC(=O)Nc1ccc(S(=O)(=O)CO)cc1`, for which the T/C under setting [4] was 121 % of control and the T/C under setting [5] was 85 % of control.

For `Cc1ccc2c(c1)C(=O)N(CC[P+](c1ccccc1)(c1ccccc1)c1ccccc1)C2=O`, for the setting “dose: 25.0 mg/kg/injection, schedule: Q04DX003 (sc), vehicle: Klucel (hydroxypropylcellulose) (HPC)”, the T/C is 110 % of control.

With `COc1ccc(C(=O)C(CN(C)C)CN(C)C)cc1`, the T/C (dose: 12.5 mg/kg/injection, schedule: Q04DX003 (sc), vehicle: saline) was 101 % of control; the T/C (dose: 25.0 mg/kg/injection, schedule: Q04DX003 (sc), vehicle: saline) is 123 % of control; the T/C (dose: 50.0 mg/kg/injection, schedule: Q04DX003 (sc), vehicle: saline) is 85 % of control.

Take `COc1cc(C2c3cc4c(cc3C(O)C(CO)C2CO)OCO4)cc(OC)c1OC` (configuration not stated): the T/C (dose: 100.0 mg/kg/injection, schedule: Q04DX003 (sc), vehicle: saline with Tween-80) was 109 % of control; the T/C (dose: 200.0 mg/kg/injection, schedule: Q04DX003 (sc), vehicle: saline with Tween-80) is 97 % of control; the T/C under setting [1] was 106 % of control; the T/C (dose: 800.0 mg/kg/injection, schedule: Q04DX003 (sc), vehicle: saline with Tween-80) was 86 % of control.

Consider `Cc1cn(C2CC(O)C(CO)O2)c(=O)[nH]c1=O` (configuration not stated), for which the T/C was 105 % of control under setting [2]; 89 % of control (dose: 1600.0 mg/kg/injection, schedule: Q04DX003 (sc), vehicle: saline); 50 % of control (dose: 3200.0 mg/kg/injection, schedule: Q04DX003 (sc), vehicle: saline); 62 % of control (dose: 6400.0 mg/kg/injection, schedule: Q04DX003 (sc), vehicle: saline).

As for `COc1cc(Cl)ccc1C`, the T/C was 108 % of control under setting [4], 88 % of control under setting [5], 95 % of control under setting [6] and 76 % of control under setting [7].

Turning to `[N-]=[N+]=C1N=CN=C1c1ncn[nH]1`, the T/C reads like this: (dose: 12.5 mg/kg/injection, schedule: Q01DX010 (sc), vehicle: Klucel (hydroxypropylcellulose) (HPC)) 121 % of control; under setting [3], 76 % of control.
